Source: ChEMBL document CHEMBL5338826, “Design and Synthesis of Inhibitors of the E3 Ligase SMAD Specific E3 Ubiquitin Protein Ligase 1 as a Treatment for Lung Remodeling in Pulmonary Arterial Hypertension” (J Med Chem, 2023)
≈ marks a conversion by molar mass, not a printed value. Calls of active or inactive are those of the source. The calls are words filed in the database; no cut-off is given here.

Experiments:
[1] = biological target: T1, E3 ubiquitin-protein ligase SMURF1 (Homo sapiens, UniProt Q9HCE7); experiment: Stabilization of SMURF1 (unknown origin) assessed as decrease in auto-ubiquitination by measuring increase in protein level by cell-based assay
[2] = Equilibrium solubility of the compound at pH 6.8; assay type: physicochemical; conditions: buffer
[3] = biological target: E3 ubiquitin-protein ligase SMURF2 (Homo sapiens, UniProt Q9HAU4); experiment: Inhibition of SMURF2 (unknown origin) assessed as self-ubiquitination by TR-FRET/biochemical assay
[4] = Plasma protein binding in rat; assay type: ADME, cell-free; conditions: read-out: PPB
[5] = Oral bioavailability in rat at 3 mg/kg; assay type: ADME, organism-based; conditions: in vivo
[6] = AUClast in rat at 3 mg/kg, po; assay type: ADME, organism-based; conditions: in vivo
[7] = Cmax in rat at 3 mg/kg, po; assay type: ADME, organism-based; parameters: dose 3 mg/kg, route po; conditions: in vivo
[8] = Half life in rat at 3 mg/kg, po and 1 mg/kg, iv; assay type: ADME, organism-based; conditions: in vivo
[9] = Volume of distribution at steady state in rat at 3 mg/kg, po and 1 mg/kg, iv; assay type: ADME, organism-based; conditions: in vivo
[10] = biological target: T1, E3 ubiquitin-protein ligase SMURF1; experiment: Inhibition of SMURF1 (unknown origin) assessed as self-ubiquitination by TR-FRET/biochemical assay
[11] = Metabolic stability in rat liver microsomes assessed as half life; assay type: ADME, Microsome
[12] = test system: Rattus norvegicus; experiment: Anti-remodeling efficacy in hypoxia/Sugen 5416-induced pulmonary arterial hypertension rat model assessed as blocked of progression of phenotype of muscularization in the pulmonary vasculature at 3 mg/kg measured after 14 days relative to control; assay type: functional, organism-based; conditions: time 14.0 day
[13] = test system: Rattus norvegicus; experiment: Anti-remodeling efficacy in hypoxia/Sugen 5416-induced pulmonary arterial hypertension rat model assessed as blocked of progression of phenotype of muscularization in the pulmonary vasculature at 10 mg/kg measured after 14 days relative to control; assay type: functional, organism-based; conditions: time 14.0 day
[14] = test system: Rattus norvegicus; experiment: Anti-remodeling efficacy in hypoxia/Sugen 5416-induced pulmonary arterial hypertension rat model assessed as reversal of vessel muscularization in the pulmonary vasculature at 3 mg/kg measured after 14 days relative to control; assay type: functional, organism-based; conditions: time 14.0 day
[15] = test system: Rattus norvegicus; experiment: Anti-remodeling efficacy in hypoxia/Sugen 5416-induced pulmonary arterial hypertension rat model assessed as reversal of vessel muscularization in the pulmonary vasculature at 10 mg/kg measured after 14 days relative to control; assay type: functional, organism-based; conditions: time 14.0 day
[16] = species: Rattus norvegicus; experiment: Anti-remodeling efficacy in hypoxia/Sugen 5416-induced pulmonary arterial hypertension rat model assessed as muscularized vessels in the pulmonary vasculature measured after 14 days relative to control; assay type: functional; conditions: time 14 day
[17] = species: Rattus norvegicus; experiment: Anti-remodeling efficacy in hypoxia/Sugen 5416-induced pulmonary arterial hypertension rat model assessed as reversal of vessel muscularization in the pulmonary vasculature measured after 14 days relative to control; assay type: functional, organism-based; conditions: time 14.0 day
[18] = species: Rattus norvegicus; experiment: Anti-remodeling efficacy in hypoxia/Sugen 5416-induced pulmonary arterial hypertension rat model assessed as blocked of progression of phenotype of muscularization in the pulmonary vasculature measured after 14 days relative to control; assay type: functional, organism-based; conditions: time 14.0 day
[19] = test system: Rattus norvegicus; experiment: Anti-remodeling efficacy in hypoxia/Sugen 5416-induced pulmonary arterial hypertension rat model assessed as muscularized vessels in the pulmonary vasculature at 10 mg/kg measured after 14 days relative to control; assay type: functional; conditions: time 14 day
[20] = test system: Rattus norvegicus; experiment: Anti-remodeling efficacy in hypoxia/Sugen 5416-induced pulmonary arterial hypertension rat model assessed as muscularized vessels in the pulmonary vasculature at 10 mg/kg measured till end of the study relative to control; assay type: functional

T1 sequence (Q9HCE7 whole entry): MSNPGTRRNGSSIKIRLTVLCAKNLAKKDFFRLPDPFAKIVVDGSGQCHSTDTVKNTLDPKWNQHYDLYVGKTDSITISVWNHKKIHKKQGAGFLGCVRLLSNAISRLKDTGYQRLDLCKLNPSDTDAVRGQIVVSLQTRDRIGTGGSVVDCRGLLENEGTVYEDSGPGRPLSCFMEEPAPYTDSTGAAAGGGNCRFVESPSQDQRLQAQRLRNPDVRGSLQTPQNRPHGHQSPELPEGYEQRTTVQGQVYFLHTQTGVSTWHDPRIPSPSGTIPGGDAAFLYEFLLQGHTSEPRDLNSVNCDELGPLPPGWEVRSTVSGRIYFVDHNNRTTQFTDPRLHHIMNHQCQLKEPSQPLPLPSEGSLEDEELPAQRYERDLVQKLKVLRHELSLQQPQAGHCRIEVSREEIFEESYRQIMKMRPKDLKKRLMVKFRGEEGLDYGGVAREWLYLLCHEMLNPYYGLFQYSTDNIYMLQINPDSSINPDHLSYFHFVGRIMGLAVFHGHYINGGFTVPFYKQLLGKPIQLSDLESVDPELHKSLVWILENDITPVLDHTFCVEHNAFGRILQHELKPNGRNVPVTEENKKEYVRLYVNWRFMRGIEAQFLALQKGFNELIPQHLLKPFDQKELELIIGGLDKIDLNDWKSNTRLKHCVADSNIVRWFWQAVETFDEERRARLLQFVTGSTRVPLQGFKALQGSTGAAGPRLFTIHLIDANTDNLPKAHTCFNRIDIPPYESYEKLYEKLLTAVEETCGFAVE
Chain of E3 ubiquitin-protein ligase SMURF2 (Q9HAU4 whole entry): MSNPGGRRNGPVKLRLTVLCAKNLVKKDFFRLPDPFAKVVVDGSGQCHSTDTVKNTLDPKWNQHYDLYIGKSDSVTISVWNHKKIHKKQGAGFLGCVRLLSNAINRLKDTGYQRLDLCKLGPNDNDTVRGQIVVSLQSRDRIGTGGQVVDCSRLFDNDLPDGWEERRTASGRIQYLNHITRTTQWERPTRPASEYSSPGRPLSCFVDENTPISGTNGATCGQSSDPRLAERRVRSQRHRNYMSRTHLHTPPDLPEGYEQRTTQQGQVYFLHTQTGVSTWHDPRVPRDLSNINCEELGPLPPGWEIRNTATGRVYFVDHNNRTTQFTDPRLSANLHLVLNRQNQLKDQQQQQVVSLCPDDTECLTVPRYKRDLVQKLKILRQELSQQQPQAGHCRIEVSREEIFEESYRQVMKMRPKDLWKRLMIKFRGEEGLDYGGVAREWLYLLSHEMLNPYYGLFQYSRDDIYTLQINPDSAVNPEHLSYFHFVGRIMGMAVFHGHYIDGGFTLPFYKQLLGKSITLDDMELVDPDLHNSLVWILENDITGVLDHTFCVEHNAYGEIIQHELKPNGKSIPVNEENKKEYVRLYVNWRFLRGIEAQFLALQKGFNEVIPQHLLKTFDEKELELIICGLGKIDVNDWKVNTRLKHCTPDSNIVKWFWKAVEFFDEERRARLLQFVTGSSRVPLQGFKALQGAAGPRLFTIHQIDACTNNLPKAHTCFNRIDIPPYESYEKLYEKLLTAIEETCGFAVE

| SMILES | EC50 [1] | solubility thermodynamic [2] | IC50 [10] | half-life [11] | other results |
| --- | --- | --- | --- | --- | --- |
| Cc1c(C(=O)O)noc1-c1ccc(C2CC2)cc1Cl | 40 nM | 24 µM (≈ 6.66 µg/mL) |  |  | IC50 [3]: 2900 nM; fraction unbound [4]: < 0.01; bioavailability [5]: 67%; AUClast [6]: 2.78 µM·h; Cmax [7]: 541 nM; half-life [8]: 96 min; Vdss [9]: 1.7 L/kg |
| Cc1c(C(=O)Nc2c(C)n(C)n(-c3ccccc3F)c2=O)noc1-c1cc(Cl)ccc1Cl | 2500 nM |  | 280 nM |  |  |
| COc1ccc(-c2onc(C(=O)Nc3c(C)n(C)n(-c4ccccc4F)c3=O)c2C)cc1 | 1600 nM | 22 µM (≈ 9.6 µg/mL) | 1000 nM | 15.8 min |  |
| Cc1c(C(=O)Nc2c(C)n(C)n(-c3ccccc3F)c2=O)noc1-c1ccc(C2CC2)cc1Cl | 230 nM |  | 11 nM | 18.9 min | fraction unbound [4]: < 0.01; bioavailability [5]: 97%; AUClast [6]: 11.6 µM·h; Cmax [7]: 1080 nM; half-life [8]: 114 min; Vdss [9]: 1.5 L/kg; Activity [12]: Active; Activity [13]: Active; Activity [14]: Active; Activity [15]: Active |
| Cc1c(C(=O)Nc2c(C)n(C)n(-c3ccccc3F)c2=O)noc1-c1ccc(Cl)cc1 | 580 nM | 140 µM (≈ 61.7 µg/mL) | 180 nM | 70.5 min |  |
| COc1ccc2c(c1)CCc1c(C(=O)Nc3c(C)n(C)n(-c4ccccc4)c3=O)noc1-2 | 4660 nM |  | 3000 nM |  | IC50 [3]: > 10000 nM |
| COc1cc2ccc3c(C(=O)Nc4c(C)n(C)n(-c5ccccc5)c4=O)noc3c2cc1OC |  |  | > 10000 nM |  |  |
| Cc1c(C(=O)Nc2c(C)n(C)n(-c3ccccc3F)c2=O)noc1-c1ccc(Cl)cc1F | 1100 nM | 530 µM (≈ 243 µg/mL) | 700 nM | 30.7 min |  |
| NC(=O)c1ccc(-c2nc(-c3ccccn3)c(-c3ccc4c(c3)OCO4)[nH]2)cc1 [SB-431542] |  |  |  |  | Activity [16]: 15%; Activity [17]: inactive; Activity [18]: Active |
| COc1ccc2c(c1)CCCc1c(C(=O)Nc3c(C)n(C)n(-c4ccccc4)c3=O)noc1-2 | 1100 nM |  | 400 nM |  |  |
| COc1ccc(-c2cc(C(=O)Nc3c(C)n(C)n(-c4ccccc4)c3=O)no2)cc1 | > 22000 nM |  | > 10000 nM |  |  |
| Cc1c(C(=O)Nc2c(C)n(C)n(C3CCCCC3)c2=O)nnn1-c1ccc(C2CC2)cc1Cl | 316 nM | 190 µM (≈ 89.1 µg/mL) |  |  | IC50 [3]: > 20000 nM; fraction unbound [4]: < 0.01; bioavailability [5]: 82%; AUClast [6]: 7.38 µM·h; Cmax [7]: 2010 nM; half-life [8]: 474 min; Vdss [9]: 2.3 L/kg; Activity [19]: 10%; Activity [20]: 18% |
| COc1ccc2c(c1)CCCc1c(C(=O)Nc3c(C)n(C)n(-c4ccccc4F)c3=O)noc1-2 | 600 nM |  | 200 nM |  |  |
| COc1ccc(-c2onc(C(=O)Nc3c(C)n(C)n(-c4ccccc4F)c3=O)c2C)c(C)c1 | 250 nM | 280 µM (≈ 126 µg/mL) | 180 nM | 45.2 min |  |
| Cc1c(C(=O)Nc2c(C)n(C)n(-c3ccccc3F)c2=O)noc1-c1ccc(Cl)cc1Cl | 410 nM | 13 µM (≈ 6.18 µg/mL) | 29 nM | 16.7 min |  |
